Reference: patent US20070129342A1, “Compositions Containing Ansamycin” (priority 2005, published 2007)
Where two headings read alike, the source gives them in different places.

Experiments:
[1] = adult patients, cited from earlier work; for Cmax: read-out: Plasma Cmax
[2] = format: physicochemical
Protocol: It should be noted that other secondary emulsifiers (e.g., dimyristylphosphatidylglycerol (DMPG), Solutol HS15, and Tween 80) were tested at refrigerated temperature for droplet size stability improvement.

**Q.** Which Cmax ([1]; at 40 mg/m^2) does the source give for C=CCNC1=C2C[C@@H](C)C[C@H](OC)[C@H](O)[C@@H](C)/C=C(\C)[C@H](OC(N)=O)[C@@H](OC)/C=C\C=C(/C)C(=O)NC(=CC1=O)C2=O [Formulation 17-AAG, 17-(allylamino)-17-demethoxygeldanamycin] here?
**A.** 1860 ± 660 nM

**Q.** And the Cmax ([1]; at 56 mg/m^2)?
**A.** 3170 ± 1310 nM

**Q.** What about the “maximum tolerated dose (MTD)” value ([1]; daily 1-hour infusion for 5 days every three weeks) of the same molecule?
**A.** 40 mg/m^2

**Q.** And the clearance ([1]; mean±SD)?
**A.** 41.0 ± 13.5 L/h

**Q.** And the terminal half-life ([1]; mean±SD)?
**A.** 2.5 ± 0.5 h

**Q.** With Tween 80 as the molecule, how does the “effect of secondary emulsifier on droplet size stability of the emulsion” value (shortened to “effect of secondary emulsifier”) [2] read?
**A.** did not improve the droplet size stability

**Q.** With CCCCCCCCCCCCCC(=O)OCC(COP(=O)(O)OCC(O)CO)OC(=O)CCCCCCCCCCCCC (centres unmarked) [DMPG, dimyristylphosphatidylglycerol] as the molecule, how does the “effect of secondary emulsifier” value [2] read?
**A.** resulted in a viscous emulsion that would be difficult to draw a syringe

**Q.** For CCCCCCCC/C=C\CCCCCCCC(=O)O [oleic acid, cis-9-octadecenoic acid], which “effect of secondary emulsifier” value [2] is on record?
**A.** showed improved stability
